In patent publication US20250101052A1, “COMPOUND FOR EGFR KINASE INHIBITOR, COMPOSITION, AND USE THEREOF” (INNOVATION INSTITUTE FOR ARTIFICIAL INTELLIGENCE IN …, priority 2021, published 2025):
pIC50: −log10 of the molar value. Where two headings read alike, the source gives them in different places.

What was measured:
[1] = tested on: BaF3-EGFR^L858R/C797S cells; assay: BaF3 cell proliferation inhibition experiment (CCK-8); format: cell-based; conditions: Ba/F3 EGFR-L858R, read-out: BaF3-EGFR^L858R/C797S (IC50 nM)
Experimental: (§1) A. Cell line: BaF3 cells with stable overexpression of wild-type genes are named BaF3-EGFR^WT, and BaF3 cells with stable overexpression of EGFR^L858R/T790M/C797S EGFR^del19/T790M/C797S EGFR^L858R/C797S and EGFR^del19/C797S mutant genes are named BaF3-EGFR^L858R/T790M/C797S BaF3-EGFR^del19/T790M/C797S BaF3-EGFR^L858R/C797S and BaF3-EGFR^del19/C797S cells, respectively. Mediums:
(§2) a) The medium was preheated in a 37° C. water bath.
(§3) b) The cryopreservation tube was taken from the liquid nitrogen tank, quickly placed in a 37° C. water bath, and melted completely within 1 minute.
(§4) c) The cell suspension was transferred to a 15 mL centrifuge tube containing a 10 mL medium and centrifuged at 1000 rpm for 4 minutes.
(§5) d) The supernatant was discarded, the cells were resuspended in a 1 mL medium and transferred to a […] culture dish containing a 10 mL medium, 20% serum and 50 ng/mL EGF were administered to the first-generation medium, and culture was conducted in a 37° C. and 5% CO2 incubator.
(§6) b) The cells in the culture dish were blown evenly with a 5 mL pipette, and 500 μL of the cells were pipetted out to be inoculated into a new […] culture dish and cultured in a 37° C. and 5% CO2 incubator.
(§7) a) The compound to be tested (10 mM stock solution) was diluted with 100% DMSO to 1 mM, and diluted with a culture solution in a 24-well plate to prepare of a working solution of 2 μM concentration.
(§8) b) The 2 μM working solution was diluted with a triple dilution method to obtain working solutions with approximate concentrations of 2 μM, 600 nM, 200 nM, 60 nM, and 20 nM.
(§9) a) The cells at the logarithmic growth phase were centrifuged at 1000 rpm for 4 minutes, resuspended with a medium (containing 10% serum and 50 ng/mL EGF), and counted.
(§10) b) The cells were inoculated into a 96-well plate with a cell density of 4000 cells/well, and placed in a 37° C. and 5% CO2 incubator for culture for 12 hours.
(§11) a) The prepared compound was added to a 96-well plate, with 100 μL per well. The final concentrations were 1 μM, 300 nM, 100 nM, 30 nM, 10 nM, and 0 nM, and the final concentration of DMSO was 0.2%. A medium served as a blank control.
(§12) b) The cells were placed in 37° C. and 5% CO2 incubator for culture for 72 hours.
(§13) (5) Cell Viability Testing
(§14) a) The 96-well cell culture plate was taken out, and 20 μL of a CCK-8 reagent (Cell Counting Kit-8, Topscience, Catalog No. C0005) was added in the dark.
(§15) b) Mixing well was conducted on a horizontal shaking table at a room temperature at 100 rpm for 5 minutes.
(§16) c) The culture plate was placed in a 37° C. constant-temperature incubator for incubation.
(§17) The data was analyzed using GraphPad Prism 8.0 software to obtain a fitted curve of activity of the compounds. The IC50 of the compounds was fitted from nonlinear regression equation.

[2] = tested on: BaF3-EGFR^del19/T790M/C797S cells; assay: as above; format: cell-based; conditions: Ba/F3 EGFR-Del19/T790M/C797S, 72 h, read-out: BaF3-EGFR^del19 /T790M/C797S (IC50 nM)
Experimental: as §1, §2, §3, §4, §5, §6, §7, §8, §9, §10, §11, §12, §13, §14, §15, §16, §17

[3] = tested on: BaF3-EGFR^WT cells; assay: as above; format: cell-based; conditions: Mus musculus, BaF3, 72 h, read-out: BaF3-EGFR^WT (IC50 nM)
Experimental: as §1, §2, §3, §4, §5, §6, §7, §8, §9, §10, §11, §12, §13, §14, §15, §16, §17

[4] = tested on: BaF3-EGFR^del19/C797S cells; assay: as above; format: cell-based; conditions: Mus musculus, read-out: BaF3-EGFR^del19 /C797S (IC50 nM)
Experimental: as §1, §2, §3, §4, §5, §6, §7, §8, §9, §10, §11, §12, §13, §14, §15, §16, §17

[5] = biological target: EGFR^L858R/T790M/C797S kinase (Homo sapiens (Human), UniProt P00533, C797S/L858R/T790M); assay: EGFR^L858R/T790M/C797S kinase inhibitory activity experiment; format: biochemical; conditions: in vitro
EGFR^L858R/T790M/C797S kinase, sequence (P00533 25-1210 T790M/C797S/L858R): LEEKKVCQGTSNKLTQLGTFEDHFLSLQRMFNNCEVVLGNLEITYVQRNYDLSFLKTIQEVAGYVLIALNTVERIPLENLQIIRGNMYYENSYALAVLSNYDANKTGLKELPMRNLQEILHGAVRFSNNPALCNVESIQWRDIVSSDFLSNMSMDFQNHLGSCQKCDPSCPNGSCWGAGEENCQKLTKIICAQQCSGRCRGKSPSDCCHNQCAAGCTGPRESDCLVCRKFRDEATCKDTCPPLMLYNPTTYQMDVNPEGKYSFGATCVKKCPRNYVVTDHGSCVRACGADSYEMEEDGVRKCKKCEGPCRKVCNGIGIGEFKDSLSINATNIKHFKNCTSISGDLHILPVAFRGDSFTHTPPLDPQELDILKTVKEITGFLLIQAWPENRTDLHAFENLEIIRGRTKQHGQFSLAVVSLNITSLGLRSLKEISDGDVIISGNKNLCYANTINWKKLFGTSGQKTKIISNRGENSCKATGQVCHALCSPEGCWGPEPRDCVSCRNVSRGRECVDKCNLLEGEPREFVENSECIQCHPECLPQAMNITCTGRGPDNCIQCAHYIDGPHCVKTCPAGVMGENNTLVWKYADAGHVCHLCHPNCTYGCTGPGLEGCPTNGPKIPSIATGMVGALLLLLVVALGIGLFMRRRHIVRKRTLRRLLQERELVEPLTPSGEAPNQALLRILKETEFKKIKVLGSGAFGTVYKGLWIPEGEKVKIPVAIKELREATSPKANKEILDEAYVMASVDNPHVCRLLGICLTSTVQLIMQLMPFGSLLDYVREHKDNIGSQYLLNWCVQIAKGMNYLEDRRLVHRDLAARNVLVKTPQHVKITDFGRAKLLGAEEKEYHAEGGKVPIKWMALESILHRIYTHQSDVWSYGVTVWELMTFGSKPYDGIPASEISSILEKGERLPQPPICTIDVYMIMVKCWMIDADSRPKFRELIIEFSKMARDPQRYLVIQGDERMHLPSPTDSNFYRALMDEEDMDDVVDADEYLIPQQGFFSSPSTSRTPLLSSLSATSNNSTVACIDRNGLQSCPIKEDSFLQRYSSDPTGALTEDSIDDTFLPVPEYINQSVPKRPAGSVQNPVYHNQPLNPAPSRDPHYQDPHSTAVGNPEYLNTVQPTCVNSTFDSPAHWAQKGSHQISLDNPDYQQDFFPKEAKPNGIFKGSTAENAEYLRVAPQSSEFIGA
Procedure, shortened: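 Human EGFR L858R/T790M/C797S mutant preincubated 10 min with compound (10-point dilution from 1 μM), then reacted 60 min at room temperature with ATP and kinase substrate 22. Substrate conversion read by Caliper mobility shift. % inhibition normalized to no-enzyme and no-compound wells, with IC50 from variable-slope log(inhibitor) fit.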

| IC50 ([1]; cell proliferation, 72 hours) [nM] | IC50 ([4]; BaF3, cell proliferation, 72 hours) [nM] | pIC50 [5] | Structure (SMILES) | IC50 ([1]; 72 h) [nM] | IC50 [2] [nM] | IC50 [3] [nM] | IC50 ([4]; BaF3, 72 h) [nM] |
| --- | --- | --- | --- | --- | --- | --- | --- |
| – | – | – | C=CC(=O)Nc1cc(Nc2nccc(-c3cn(C)c4ccccc34)n2)c(OC)cc1N(C)CCN(C)C [AZD9291, reference compound] | > 1000 | 614 | 76.1 | > 1000 |
| 166 | 193 | 9.70 | CCc1cc(Nc2ncc(Cl)c(Nc3ccc(C)c(C)c3P(C)(C)=O)n2)c(OC)cc1N1CCC(N2CC3CC2CN3C)CC1 (stereo not shown) [Compound 54, (6-((5-Chloro-2-((5-ethyl-2-methoxy-4-(4-(5-methyl-2,5-diazadicyclo[2.2.1]heptane-2-yl)piperidin-1-yl)phenyl)amino)pyrimidin-4-yl)amino)-2,3-dimethylphenyl)dimethylphosphine oxide] | – | – | – | – |
